Source: patent US11834460B2, “Imide-based modulators of proteolysis and associated methods of use” (YALE UNIVERSITY, priority 2018, dated 2023)

Test system: c-Myc
Assay: c-Myc ELISA assay protocol in 22RV-1 cells
Assay type: cell-based, human
Conditions: 18 h, read-out: cMyc IC50
Experimental: In each bioassay, cells were treated with varying amounts of compounds encompassed by the present disclosure, as shown in Table 1. The degradation of the following proteins were evaluated in this study: TANK-binding kinase 1 (TBK1), estrogen receptor α (ERα), bromodomain-containing protein 4 (BRD4), androgen receptor (AR), and c-Myc.
5. c-Myc ELISA Assay Protocol
22RV-1 cells were purchased from ATCC and cultured in RPMI+10% FBS media. Cells were harvested using trypsin (Gibco #25200-114), counted and seeded at 30,000 cells/well at a volume of 75 μL/well in RPMI +10% FBS media in 96-well plates. The cells were dosed with compounds diluted in 0.1% DMSO, incubated for 18 h then washed and lysed in 50 uL RIPA buffer (50 mM Tris pH8, 150 mM NaCl, 1% Tx-100, 0.1% SDS, 0.5% sodium deoxycholate) supplemented with protease and phosphatase inhibitors. The lysates were clarified at 4000 rpm at 4° C. for 10 minutes then aliquots were added into a 96-well ELISA plate of Novex Human c-myc ELISA kit from Life Technologies Catalog #KHO2041. 50 ul of c-Myc Detection antibody was added into every well, the plates incubated at room temperature for 3 hrs, then washed with ELISA wash buffer. 100 uL of the anti-rabbit IgG-HRP secondary antibody was added to each well and incubated at room temperature for 30 minutes. The plates were washed with ELISA wash buffer, 100 μL TMB added to each well, and then monitored every 5 minutes for a color change. 100 μL of stop solution is added and the plates read at 450 nm.

**Q.** With Cc1sc2c(c1C)C(c1ccc(Cl)cc1)=N[C@@H](CC(=O)N[C@@H](C)c1ccc(OCCCCNc3cccc4c3C(=O)N(C3CCC(=O)NC3=O)C4=O)cc1)c1nnc(C)n1-2 (stereo partly drawn) [Compound 23, 2-((9S)-7-(4-chlorophenyl)-4,5,13-trimethyl-3-thia-1,8,11,12-tetraazatricyclo [8.3.0.02,6]trideca-2(6),4,7,10, 12-pentaen-9-yl)-N-((1S)-1-(4-(4-((2-(2,6-dioxopiperidin-3-yl)-1,3-dioxo-2,3-dihydro-1H-isoindol-4-yl)amino)butoxy)phenyl)ethyl) acetamide] as the molecule, how does the IC50 read?
**A.** > 50 nM

**Q.** Which IC50 does the source give for Cc1sc2c(c1C)C(c1ccc(Cl)cc1)=N[C@@H](CC(=O)NCCCOCCCNc1cccc3c1C(=O)N(C1CCC(=O)NC1=O)C3=O)c1nnc(C)n1-2 (stereo partly drawn) [Compound 24, 2-((9S)-7-(4-chlorophenyl)-4,5,13-trimethyl-3-thia-1,8,11,12-tetraazatricyclo [8.3.0.02,6]trideca-2(6),4,7,10, 12-pentaen-9-yl)-N-(3-(3-((2-(2,6-dioxopiperidin-3-yl)-1,3-dioxo-2,3-dihydro-1H-isoindol-4-yl)amino)propoxy)propyl)acetamide] here?
**A.** < 50 nM

**Q.** Which IC50 does the source give for Cc1sc2c(c1C)C(c1ccc(Cl)cc1)=N[C@@H](CC(=O)NCCCNc1cccc3c1C(=O)N(C1CCC(=O)NC1=O)C3=O)c1nnc(C)n1-2 (stereo partly drawn) [Compound 25, 2-((9S)-7-(4-chlorophenyl)-4,5,13-trimethyl-3-thia-1,8,11,12-tetraazatricyclo [8.3.0.02,6]trideca-2(6),4,7,10,12-pentaen-9-yl)-N-(3-((2-(2,6-dioxopiperidin-3-yl)-1,3-dioxo-2,3-dihydro-1H-isoindol-4-yl)amino)propyl) acetamide] here?
**A.** > 50 nM

**Q.** How did the IC50 turn out when Cc1sc2c(c1C)C(c1ccc(Cl)cc1)=N[C@@H](CC(=O)NCCOCCNc1cccc3c1C(=O)N(C1CCC(=O)NC1=O)C3=O)c1nnc(C)n1-2 (stereo partly drawn) [Compound 27, 2-((9S)-7-(4-chlorophenyl)-4,5,13-trimethyl-3-thia-1,8,11,12-tetraazatricyclo [8.3.0.02,6]trideca-2(6),4,7,10,12-pentaen-9-yl)-N-(2-(2-((2-(2,6-dioxopiperidin-3-yl)-1,3-dioxo-2,3-dihydro-1H-isoindol-4-yl)amino)ethoxy)ethyl)acetamide] was run?
**A.** < 50 nM

**Q.** With Cc1sc2c(c1C)C(c1ccc(Cl)cc1)=N[C@@H](CC(=O)N[C@H](C)c1ccc(OCCCCNc3cccc4c3C(=O)N(C3CCC(=O)NC3=O)C4=O)cc1)c1nnc(C)n1-2 (stereo partly shown) [Compound 28] as the molecule, how does the IC50 read?
**A.** < 50 nM

**Q.** For Cc1sc2c(c1C)C(c1ccc(Cl)cc1)=N[C@@H](CC(=O)N[C@H](C)c1ccc(OCCOCCNc3cccc4c3C(=O)N(C3CCC(=O)NC3=O)C4=O)cc1)c1nnc(C)n1-2 (stereo partly drawn) [Compound 29, 2-((9S)-7-(4-chlorophenyl)-4,5,13-trimethyl-3-thia-1,8,11,12-tetraazatricyclo [8.3.0.02,6]trideca-2(6),4,7,10, 12-pentaen-9-yl) N-((1R)-1-(4-(2-(2-((2-(2,6-dioxopiperidin-3-yl)-1,3-dioxo-2,3-dihydro-1H-isoindol-4-yl)amino)ethoxy)ethoxy)phenyl)ethyl) acetamide], which IC50 is on record?
**A.** < 50 nM

**Q.** For Cc1sc2c(c1C)C(c1ccc(Cl)cc1)=N[C@@H](CC(=O)N[C@H](C)c1ccc(OCCCNc3cccc4c3C(=O)N(C3CCC(=O)NC3=O)C4=O)cc1)c1nnc(C)n1-2 (stereo partly drawn) [Compound 30, 2-((9S)-7-(4-chlorophenyl)-4,5,13-trimethyl-3-thia-1,8,11,12-tetraazatricyclo [8.3.0.02,6]trideca-2(6),4,7,10, 12-pentaen-9-yl)-N-((1R)-1-(4-(3-((2-(2,6-dioxopiperidin-3-yl)-1,3-dioxo-2,3-dihydro-1H-isoindol-4-yl)amino)propoxy)phenyl)ethyl) acetamide], which IC50 is on record?
**A.** < 50 nM

**Q.** How did the IC50 turn out when Cc1sc2c(c1C)C(c1ccc(Cl)cc1)=N[C@@H](CC(=O)Nc1cnc(-c3ccc(OCCCNc4cccc5c4C(=O)N(C4CCC(=O)NC4=O)C5=O)cc3)nc1)c1nnc(C)n1-2 (stereo partly drawn) [Compound 31, 2-((9S)-7-(4-chlorophenyl)-4,5,13-trimethyl-3-thia-1,8,11,12-tetraazatricyclo [8.3.0.02,6]trideca-2(6),4,7,10, 12-pentaen-9-yl)-N-(2-(4-(3-((2-(2,6-dioxopiperidin-3-yl)-1,3-dioxo-2,3-dihydro-1H-isoindol-4-yl)amino)propoxy)phenyl)pyrimidin-5-yl)acetamide] was run?
**A.** < 50 nM

**Q.** For Cc1sc2c(c1C)C(c1ccc(Cl)cc1)=N[C@@H](CC(=O)Nc1ccc(OCCCOCCNc3cccc4c3C(=O)N(C3CCC(=O)NC3=O)C4=O)c(F)c1)c1nnc(C)n1-2 (stereo partly drawn) [Compound 32, 2-((9S)-7-(4-chlorophenyl)-4,5,13-trimethyl-3-thia-1,8,11,12-tetraazatricyclo [8.3.0.02,6]trideca-2(6),4,7,10, 12-pentaen-9-yl)-N-(4-(3-(2-((2-(2,6-dioxopiperidin-3-yl)-1,3-dioxo-2,3-dihydro-1H-isoindol-4-yl)amino)ethoxy)propoxy)-3-fluorophenyl) acetamide], which IC50 is on record?
**A.** < 50 nM

**Q.** With Cc1sc2c(c1C)C(c1ccc(Cl)cc1)=N[C@@H](CC(=O)Nc1ccc(OCCCCOCCCNc3cccc4c3C(=O)N(C3CCC(=O)NC3=O)C4=O)cc1F)c1nnc(C)n1-2 (stereo partly drawn) [Compound 33, 2-((9S)-7-(4-chlorophenyl)-4,5,13-trimethyl-3-thia-1,8,11,12-tetraazatricyclo [8.3.0.02,6]trideca-2(6),4,7,10, 12-pentaen-9-yl)-n-(4-(4-(3-((2-(2,6-dioxopiperidin-3-yl)-1,3-dioxo-2,3-dihydro-1h-isoindol-4-yl)amino)propoxy)butoxy)-2-fluorophenyl) acetamide] as the molecule, how does the IC50 read?
**A.** < 50 nM

**Q.** For Cc1sc2c(c1C)C(c1ccc(Cl)cc1)=N[C@@H](CC(=O)Nc1ccc(OCCCCOCCCNc3cccc4c3C(=O)N(C3CCC(=O)NC3=O)C4=O)c(F)c1)c1nnc(C)n1-2 (stereo partly drawn) [Compound 34, 2-((9S)-7-(4-chlorophenyl)-4,5,13-trimethyl-3-thia-1,8,11,12-tetraazatricyclo [8.3.0.02,6]trideca-2(6),4,7,10, 12-pentaen-9-yl)-N-(4-(4-(3-((2-(2,6-dioxopiperidin-3-yl)-1,3-dioxo-2,3-dihydro-1H-isoindol-4-yl)amino)propoxy)butoxy)-3-fluorphenyl) acetamide], which IC50 is on record?
**A.** < 50 nM

**Q.** How did the IC50 turn out when Cc1sc2c(c1C)C(c1ccc(Cl)cc1)=N[C@H](CC(=O)Nc1ccc(OCCOCCOCCOCCNc3cccc4c3CN(C3CCC(=O)NC3=O)C4=O)cc1)c1nnc(C)n1-2 (stereo partly drawn) [Compound 35, 2-((9R)-7-(4-chlorophenyl)-4,5,13-trimethyl-3-thia-1,8,11,12-tetraazatricyclo [8.3.0.02,6]trideca-2(6),4,7,10, 12-pentaen-9-yl)-N-(4-((1-(2-(2,6-dioxopiperidin-3-yl)-1-oxo-2,3-dihydro-1H-isoindol-4-yl)-4,7,10-trioxa-1-azadodecan-12-yl)oxy)phenyl) acetamide] was run?
**A.** < 50 nM

**Q.** Cc1sc2c(c1C)C(c1ccc(Cl)cc1)=N[C@@H](CC(=O)N[C@@H](C)c1ccc(-c3ncc(OCCOCCNc4cccc5c4C(=O)N(C4CCC(=O)NC4=O)C5=O)cn3)cc1)c1nnc(C)n1-2 (stereo partly drawn) [Compound 36, 2-[(9S)-7-(4-chlorophenyl)-4,5,13-trimethyl-3-thia-1,8,11,12-tetraazatricyclo [8.3.0.0^2,^6]trideca-2(6),4,7,10,12-pentaen-9-yl]-N-[(1S)-1-(4-{5-[2-(2-{[2-(2,6-dioxopiperidin-3-yl)-1,3-dioxo-2,3-dihydro-1H-isoindol-4-yl]amino}ethoxy)ethoxy]pyrimidin-2-yl}phenyl)ethyl] acetamide] was tested. Which IC50 did it give?
**A.** < 50 nM
